US10093670B2, “Azabenzimidazole derivative having AMPK-activating activity” (Shionogi & Co., Ltd., priority 2011, dated 2018)

How the values were obtained:
[1] = molecular target: T1, human AMPK α1β1γ1 enzyme (Homo sapiens, UniProt Q13131+Q9Y478); assay: Evaluation of AMPK activator, Test Example 1 (mobility-shift kinase assay, FL-Peptide 7); format: biochemical; details: for EC150 (compound concentration showing 150% relative to the control (100%)): human AMPK α1β1γ1, 25° C., 2 hours, 0.2 mM ATP final; for Emax / Emax (maximum rate of increase in activity within the measurement range): human AMPK α1β1γ1, relative to control (100%); for Emax: read-out: Emax (maximum rate of increase in activity within the measurement range)
T1 construct: purchased Carna Biosciences, Inc
Description: The obtained liquid was left to stand for 10 minutes.
The obtained liquid was allowed to react at 25° C. for 2 hours, and 10 μl of 20 mM EDTA was then added thereto to stop the reaction.
(§1) To detect phosphorylated fluorescent substrates, the reaction liquid was applied to a measuring device, LabChip EZ Reader II manufactured by Caliper Life Science, Inc., for detecting fluorescence by using differences in mobility due to differences in charge. The setting conditions for the device were pressure, −1.5 PSI; upstream voltage, −2250 V; downstream voltage, −400 V; post sample buffer sip time, 40 seconds; final delay, 120 seconds; and peak order, Product First.
(§2) A conversion rate was calculated from the peak heights of the resulting substrate and product. The conversion rate when not containing a compound was used as a control, and a concentration dependent curve was made by plotting the rate of increase in activity to the control at each concentration of a compound.

[2] = molecular target: T2, Human AMPK α2β2γ1 (Homo sapiens, UniProt O43741+P54646); assay: Evaluation of AMPK activator, Test Example 2 (CaMKK2-phosphorylated enzyme, mobility-shift kinase assay); format: biochemical; details: for EC150 (compound concentration showing 150% relative to the control (100%)): human AMPK α2β2γ1 phosphorylated by CaMKK2, 25° C., 2 hours; for Emax: human AMPK α2β2γ1 phosphorylated by CaMKK2, relative to control (100%), read-out: Emax (maximum rate of increase in activity within the measurement range)
T2 construct: The full length cDNAs of human AMPK β2 (NM_005399.3) and human AMPK α2 (NM_006252.3) were inserted; the full length cDNA of human AMPK γ1 (NM_002733.3) had been inserted into pET28b(+); 6xHis (N); made in house; host or cells: Escherichia coli BL21 CodonPlus (DE3)-RIL (AMPK); BL21 Star (DE3) (CaMKKβ)
Description: The full length cDNAs of human AMPK β2 (NM_005399.3) and human AMPK α2 (NM_006252.3) were inserted into the MCS1 and MCS2 of the pETDuet-1 vector to prepare a human AMPK β2 and human AMPK α2 (6× His tag at the 5′ terminus) expressing plasmid. The plasmid was contransfected with an expression plasmid, in which the full length cDNA of human AMPK γ1 (NM_002733.3) had been inserted into pET28b(+), into BL21 CodonPlus (DE3)-RIL to obtain an expression strain. The expression strain was cultured in TB medium, followed by induction with 0.5 mM IPTG, and cultured at 25° C. for 3 hours and then harvested. After ultrasonication, supernatant was collected and applied to Histrap FF column (GE) and RESOUECE Q column (GE) to prepare 12.5 mg of purified sample containing three types of subunit from 1.8 L of broth.
An expression vector, in which the full length cDNA of human CAMKK β (NM_172226.1) had been inserted into pGEX-6P-3, was transfected into BL21 Star (DE3). The expression strain was cultured in TB medium, followed by induction with 0.5 mM IPTG, and cultured at 25° C. for 3 hours and then harvested. After ultrasonication, supernatant was collected and applied to GSTrap FF column (GE) to prepare 14 mg of GST-fused CAMKK β from 720 ml of broth.
Evaluation Method of an Activator for AMP-activated Protein Kinase (AMPK) (Test Example 2)
Thus, phosphorylation treatment was carried out as pretreatment.
Human AMPK α2β2γ1 in an amount to give a conversion rate of approximately 10% by reaction for 2 hours, and CaMKK2 in an amount capable of sufficiently imparting activity to AMPK for one hour were mixed in a buffer solution consisting of a 50 mM HEPES-NaOH buffer solution (pH 7.0), 100 mM NaCl, 5 mM magnesium chloride, 0.1% bovine serum albumin, 0.2 mM sodium orthovanadate(V), 1 mM ethylene glycol-bis(2-aminoethyl ether)-N,N,N′,N′-tetraacetic acid (EGTA), 5 mM disodium β-glycerophosphate, 1 mM dithiothreitol and 0.2 mM ATP, and the obtained liquid was left to stand at 25° C. for 1 to 1.5 hours to sufficiently phosphorylate AMPK.
After that, to the enzyme liquid, which had been subjected to phosphorylation treatment, a compound dissolved in DMSO was added so as to have a 1% DMSO concentration. The obtained liquid was left to stand for 10 minutes.
To the liquid, a substrate solution consisting of a 50 mM HEPES-NaOH buffer solution (pH 7.0), 100 mM NaCl, 10 mM magnesium chloride, 0.1% bovine serum albumin, 0.2 mM sodium orthovanadate(V), 1 mM ethylene glycol-bis(2-aminoethyl ether)-N,N,N′,N′-tetraacetic acid (EGTA), 5 mM disodium β-glycerophosphate, 2 mM dithiothreitol, 0.4 mM ATP and 3 μM FL-Peptide 7 (manufactured by Caliper Life Sciences, Inc.) was added in equal amount (10 μl in total). The obtained liquid was allowed to react at 25° C. for 2 hours, and 10 μl of 20 mM EDTA was then added thereto to stop the reaction.
as §1, §2

T2 sequence (P54646 whole entry): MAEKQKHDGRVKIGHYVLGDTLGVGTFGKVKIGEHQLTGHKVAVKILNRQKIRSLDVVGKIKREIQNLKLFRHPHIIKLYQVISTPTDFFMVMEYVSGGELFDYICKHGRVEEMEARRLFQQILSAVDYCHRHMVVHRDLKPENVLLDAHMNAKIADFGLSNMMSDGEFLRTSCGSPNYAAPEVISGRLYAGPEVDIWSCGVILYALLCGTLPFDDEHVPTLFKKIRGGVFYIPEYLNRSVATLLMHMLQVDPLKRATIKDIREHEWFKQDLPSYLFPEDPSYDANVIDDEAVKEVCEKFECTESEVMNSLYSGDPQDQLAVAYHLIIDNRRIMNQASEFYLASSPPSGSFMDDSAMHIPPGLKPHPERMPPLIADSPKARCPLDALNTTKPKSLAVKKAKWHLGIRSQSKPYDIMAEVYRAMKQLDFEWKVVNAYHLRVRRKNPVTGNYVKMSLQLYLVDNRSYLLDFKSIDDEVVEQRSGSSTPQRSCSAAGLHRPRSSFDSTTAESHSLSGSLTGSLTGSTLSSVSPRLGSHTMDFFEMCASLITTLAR
T2 sequence (O43741 whole entry): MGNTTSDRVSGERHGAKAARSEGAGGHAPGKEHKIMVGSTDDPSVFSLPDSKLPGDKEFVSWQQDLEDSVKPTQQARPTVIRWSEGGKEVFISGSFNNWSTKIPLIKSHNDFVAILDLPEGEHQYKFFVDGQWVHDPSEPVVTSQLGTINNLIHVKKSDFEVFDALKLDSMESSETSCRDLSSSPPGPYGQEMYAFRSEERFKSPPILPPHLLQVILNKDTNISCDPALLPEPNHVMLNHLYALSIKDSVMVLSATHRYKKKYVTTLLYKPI
T2 sequence (P54619 whole entry partner): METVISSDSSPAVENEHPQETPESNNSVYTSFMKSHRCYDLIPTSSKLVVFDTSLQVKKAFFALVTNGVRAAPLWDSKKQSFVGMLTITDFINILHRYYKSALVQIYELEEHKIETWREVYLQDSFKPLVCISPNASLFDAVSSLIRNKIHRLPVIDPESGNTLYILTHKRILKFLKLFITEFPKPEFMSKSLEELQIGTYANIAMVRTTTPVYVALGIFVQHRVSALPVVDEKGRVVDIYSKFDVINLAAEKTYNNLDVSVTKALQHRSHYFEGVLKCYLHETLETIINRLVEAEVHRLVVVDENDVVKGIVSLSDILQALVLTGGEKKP
T1 sequence (Q13131 10-559 limits assumed): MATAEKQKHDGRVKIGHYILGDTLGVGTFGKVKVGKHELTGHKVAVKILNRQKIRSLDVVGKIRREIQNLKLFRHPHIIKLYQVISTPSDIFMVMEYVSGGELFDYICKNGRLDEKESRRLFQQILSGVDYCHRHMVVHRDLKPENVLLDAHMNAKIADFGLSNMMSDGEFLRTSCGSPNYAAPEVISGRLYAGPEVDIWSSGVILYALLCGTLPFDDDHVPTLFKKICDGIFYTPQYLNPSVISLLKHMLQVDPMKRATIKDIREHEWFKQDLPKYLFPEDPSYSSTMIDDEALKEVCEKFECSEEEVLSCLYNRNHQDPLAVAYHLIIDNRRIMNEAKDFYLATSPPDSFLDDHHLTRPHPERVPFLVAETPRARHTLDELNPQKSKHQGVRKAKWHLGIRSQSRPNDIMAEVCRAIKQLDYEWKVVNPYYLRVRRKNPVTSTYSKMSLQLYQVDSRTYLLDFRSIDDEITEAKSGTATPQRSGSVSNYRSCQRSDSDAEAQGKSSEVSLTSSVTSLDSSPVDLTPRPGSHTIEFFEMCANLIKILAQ
T1 sequence (Q9Y478 whole entry): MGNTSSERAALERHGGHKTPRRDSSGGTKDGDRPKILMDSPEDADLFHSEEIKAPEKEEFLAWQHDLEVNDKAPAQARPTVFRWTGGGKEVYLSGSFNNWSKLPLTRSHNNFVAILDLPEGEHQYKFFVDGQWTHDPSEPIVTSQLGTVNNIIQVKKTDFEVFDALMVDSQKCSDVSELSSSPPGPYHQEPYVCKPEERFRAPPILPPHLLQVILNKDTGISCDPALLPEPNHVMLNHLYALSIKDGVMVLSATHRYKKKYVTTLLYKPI
T1 sequence (P54619 whole entry partner): as the sequence (P54619 whole entry partner) above

Row | SMILES | EC150 (compound concentration showing 150% relative to the control (100%)) [1] [nM] | Emax [1] [%] | EC150 (compound concentration showing 150% relative to the control (100%)) [2] [nM] | Emax [2] [%] | Emax (maximum rate of increase in activity within the measurement range) [1] [%]
1 | CC(=O)NC1CC=C(c2ccc(-c3nc4nc(O[C@H]5CC[C@H](CC(=O)O)CC5)[nH]c4cc3Cl)cc2)CC1 (stereo partly drawn) [Compound I-2-76] | 14 | 232 | 85 | 175 | 
2 | CC(Oc1nc2nc(-c3ccc(N4CCCC4)cc3)c(Cl)cc2[nH]1)c1cc(O)no1 (stereo not drawn) [Compound I-2-112] | 25 | 246 | 74 | 269 | 
3 | CN(C)C(=O)[C@H]1C[C@@H](Oc2nc3nc(-c4ccc(C5=CCC(C(=O)O)CC5)cc4)c(Cl)cc3[nH]2)C1 (stereo partly drawn) [Compound I-2-129] |  | 276 |  | 339 | 
4 | CC(C)(C(=O)O)[C@]1(O)CC[C@@H](Oc2nc3nc(-c4ccc(N5CCOCC5)cc4)c(Cl)cc3[nH]2)CC1 [Compound I-3-24] | 0.79 |  | 11 | 271 | 318
5 | CC(C)(C(=O)O)[C@]1(O)CC[C@@H](Oc2nc3nc(-c4ccc(N5CCCC5)cc4)c(Cl)cc3[nH]2)CC1 [Compound I-3-30] | 0.49 | 345 | 12 | 271 | 
6 | CC(C)(C(=O)O)C1CCC(Oc2nc3nc(-c4ccc(C5(CO)CC5)cc4)c(Cl)cc3[nH]2)CC1 (stereo not drawn) [Compound I-3-37] | 5.6 | 257 | 5 | 237 | 
7 | CC(C)(C(=O)O)[C@H]1CC[C@H](Oc2nc3nc(-c4c(F)cc(N5CCOCC5)cc4F)ccc3[nH]2)CC1 [Compound I-3-40] | 23 | 244 | 69 | 228 | 
8 | CN(C)C(=O)[C@]1(O)CC[C@@H](Oc2nc3nc(-c4ccc(C5=CCC(C(=O)O)CC5)cc4)c(Cl)cc3[nH]2)CC1 (stereo partly drawn) [Compound I-3-54] | 270 | 201 | 2.2 | 373 | 
9 | CC(C)(C(=O)O)[C@]1(O)CC[C@@H](Oc2nc3nc(-c4ccc(-c5ccccc5)cc4)c(Cl)cc3[nH]2)CC1 [Compound I-3-66] | 3.4 | 389 |  |  | 
10 | CCC(Oc1nc2nc(-c3ccc(N4CCCC4)cc3)c(Cl)cc2[nH]1)c1cc(O)no1 (stereo not drawn) [Compound I-3-69] | 60 | 259 |  |  | 
11 | O=C(O)[C@]1(O)CC[C@@H](Oc2nc3nc(-c4ccc(N5CCOCC5)cc4)c(Cl)cc3[nH]2)CC1 [Compound I-3-75] | 47 | 236 |  |  | 
12 | CC(C)(C(=O)O)[C@]1(O)CC[C@@H](Oc2nc3nc(-c4ccc(N5CCOCC5)cc4)c(Cl)cc3[nH]2)CC1 [Compound I-3-83] | 24 |  |  |  | 278
13 | CN(C)C(=O)N1CC=C(c2ccc(-c3nc4nc(O[C@H]5CC[C@H](C(C)(C)C(=O)O)CC5)[nH]c4cc3Cl)cc2)CC1 [Compound I-3-85] | 4.9 | 276 |  |  | 
14 | CC(=O)NC1CC=C(c2ccc(-c3nc4nc(O[C@H]5CC[C@H](C(C)(C)CO)CC5)[nH]c4cc3Cl)cc2)CC1 (stereo partly drawn) [Compound I-3-86] | 23 | 277 | 11 | 259 | 
15 | CC(C)(CO)C1CCC(Oc2nc3nc(-c4ccc(N5CCOCC5)cc4)c(Cl)cc3[nH]2)CC1 (stereo not drawn) [Compound I-3-89] |  | 236 |  |  | 
16 | CC(C)(C(=O)O)[C@H]1CC[C@H](Oc2nc3nc(-c4ccc(C5=CCN(C(=O)CO)CC5)cc4)c(Cl)cc3[nH]2)CC1 [Compound I-3-90] | 17 | 320 | 21 | 274 | 
17 | CN(C)C(=O)[C@H]1C[C@@H](Oc2nc3nc(-c4ccc(-c5ccc(C(=O)O)cc5)cc4)c(Cl)cc3[nH]2)C1 [Compound I-3-91] | 21 | 287 |  |  | 
18 | CC(=O)N1CC=C(c2ccc(-c3nc4nc(OC5CCC(C(C)(C)CO)CC5)[nH]c4cc3Cl)cc2)CC1 (stereo not drawn) [Compound I-3-92] | 23 | 303 |  |  | 
19 | CC(C)(C(=O)O)C1CCC(Oc2nc3nc(-c4ccc(C5=CCOCC5)cc4)c(Cl)cc3[nH]2)CC1 (stereo not drawn) [Compound I-3-93] | 9.6 | 301 |  |  | 
20 | CC(C)(C(=O)O)[C@H]1CC[C@H](Oc2nc3nc(-c4ccc(-c5ccccc5O)cc4)c(Cl)cc3[nH]2)CC1 [Compound I-3-97] | 0.68 | 343 |  |  | 
21 | O=C(c1ccc(-c2ccc(-c3nc4nc(O[C@H]5CC[C@H](C(=O)O)CC5)[nH]c4cc3Cl)cc2)cc1)N1CCC(O)CC1 [Compound I-3-104] | 21 | 203 |  |  | 
22 | CC(C)(C(=O)O)[C@H]1CC[C@H](Oc2nc3nc(-c4ccc(-c5ccc(C(=O)N6CCC(O)CC6)cc5)cc4)c(Cl)cc3[nH]2)CC1 [Compound I-3-106] | 9.1 | 311 |  |  | 
23 | CC(C)(C(=O)O)[C@H]1CC[C@H](Oc2nc3nc(-c4ccc(-c5ccc(C(=O)N6CCOCC6)cc5)cc4)c(Cl)cc3[nH]2)CC1 [Compound I-3-108] | 8.2 | 291 |  |  | 
24 | O=C(O)c1ccc(-c2ccc(-c3nc4nc(O[C@H]5C[C@@H](C(=O)N6CC(O)C6)C5)[nH]c4cc3Cl)cc2)cc1 [Compound I-3-115] | 23 | 260 |  |  | 
25 | CC(C)(C(=O)O)[C@H]1CC[C@H](Oc2nc3nc(-c4ccc(-c5ccc(C(N)=O)cc5)cc4)c(Cl)cc3[nH]2)CC1 [Compound I-3-119] | 1.6 | 300 |  |  | 
26 | O=C(O)C1([C@]2(O)CC[C@@H](Oc3nc4nc(-c5ccc(N6CCOCC6)cc5)c(Cl)cc4[nH]3)CC2)CCC1 [Compound I-3-123] | 18 | 243 |  |  | 
